Experimental data: patent publication US12195744B2, “Identification of T-cell trafficking genes and uses thereof for increasing infiltration of T-cells into solid tumors” (UNIVERSITY OF IOWA RESEARCH FOUNDATION, priority 2017, dated 2025)
“Also recorded” adds a separate entry of the source.

Assays:
[1] = tested on: primary mouse splenocytes; assay: PD-1 expression on CD8+ T cells after in vitro treatment of primary mouse splenocytes; type: cell-based; details: mouse splenocytes treated with 2 μM iAak1 in vitro
Description: FIG. 11 illustrates the results of in vitro treatment of primary mouse splenocytes with Aak1 inhibitor (iAak1) on PD-1 expression. Mouse splenocytes were treated with 2 μM concentration of iAak1 and PD-1 expression was assayed in CD8+ T cells.

[2] = tested on: primary mouse CD8+ T cells; assay: Cell proliferation after in vitro treatment of primary mouse CD8+ T cells; type: cell-based; details: primary mouse CD8+ T cells treated on day 0, optionally activated, assessed days 1-7
Description: FIG. 10 illustrates the results of in vitro treatment of primary mouse CD8+ T cells with Aak1 inhibitor (iAak1) on cell proliferation. Primary mouse CD8+ T cells were treated on day 0 with the indicated concentration of LP-935509 and optionally activated. Cell proliferation was assessed at days 1, 2, 3, 4, 5, 6, and 7.

A20 tumors = assay: Growth of A20 tumors in mice; type: in vivo
Description: FIG. 15 illustrates the results of Aak1 inhibitor (iAak1) on the growth of A20 tumors in mice. Mice were inoculated with A20 tumor cells. Treatment began ten (10) days post tumor inoculation. All mice received twice weekly IP injections of aPD1. Ten (10) mice received DMSO, and ten (10) mice received iAak1 via oral gavage daily.

EG7 cells = assay: Growth of EG7 cells in vitro; type: cell-based; details: concentrations as high as 2 μM; listed as iAak1
Description: FIG. 14 illustrates the results of Aak1 inhibitor (iAak1) on growth of EG7 cells in vitro.

EG7 tumors = assay: Growth of EG7 tumors in mice; type: in vivo; details: oral gavage on same days as twice weekly IP aPD1, from 3 days post inoculation, vs DMSO
Description: (§1) FIG. 12 illustrates the results of Aak1 inhibitor (iAak1) on the growth of EG7 tumors in mice. Mice were inoculated with EG7 tumor cells. Treatment began three (3) days post tumor inoculation. All mice received twice weekly IP injections of aPD1. Five (5) mice received DMSO, and five (5) mice received iAak1 via oral gavage on same days as aPD1 treatment.

[3] = tested on: CD8+ T cells in EG7 tumor model; assay: PD-1 expression in tumor-infiltrating versus splenic CD8+ T cells in EG7 tumor model; type: in vivo, mice; details: oral gavage with twice weekly IP aPD1, vs DMSO, listed as iAak1
Description: as §1, with “FIG. 13” for “FIG. 12”, “on PD-1 expression in tumor-infiltrating versus splenic CD8+ T cells in an” for “on the growth of”, “EG7 tumor model.” for “EG7 tumors in mice.”, “received Aak1inh” for “received iAak1”

[4] = tested on: primary mouse CD8+ T cells; assay: PD-1 expression after in vitro treatment of primary mouse CD8+ T cells; type: cell-based; details: activated primary mouse CD8+ T cells, measured at days 6, 7, 8 and 9
Description: FIG. 9 illustrates the results of in vitro treatment of primary mouse CD8+ T cells with Aak1 inhibitor (iAak1 aka LP-935509) on PD-1 expression. Primary mouse CD8+ T cells were treated with the indicated concentration of LP-935509 and PD-1 expression was measured at days 6, 7, 8, and 9.

SMILES: COc1ncccc1-c1cnn2ccc(N3CCN(C(=O)OC(C)C)CC3)nc12 [LP-935509]
- PD-1 expression in CD8+ T cells [1]: modest increase; also recorded: increases
- cell proliferation [2]: modest enhancement
- cell proliferation ([2]; listed as iAak1): modestly enhances
- CD3+ T cell infiltration of the tumor (A20 tumors; A20 tumors, daily oral gavage with twice weekly IP aPD1, vs DMSO): moderate inhibit
- A20 tumor growth in vivo (A20 tumors; daily oral gavage with twice weekly IP aPD1, from 10 days post inoculation, vs DMSO, listed as iAak1): increased; also recorded: enhanced
- EG7 cell proliferation in vitro (EG7 cells): not observed to directly increase; also recorded: did not directly increase
- EG7 tumor growth in vivo (EG7 tumors): increased
- PD-1 expression in CD8+ T cells isolated from tumors [3]: increased
- PD-1 expression [4]: transient increase
